Results as given in patent US9200008B2 (ASKA PHARMACEUTICAL CO., LTD., priority 2010, dated 2015).

test system: Human prostate cancer cell lines (PC-3 cells); test: Measurement of cell death-inducing activity (Test Example 1); assay type: cell-based; settings: PC-3, 48 h, 48 hours after addition, tested at 10, 1, 0.1, 0.025 and 0.00625 μmol/L, qualitative evaluation of 10 fields, read-out: Concentration showing the cell death-inducing activity (cell death-inducing rate not less than 40%)
In short: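 Compound treatment lasted 48 h at 10 to 0.00625 μmol/L (five levels, DMSO as control) on PC-3 cells pre-cultured 48 h at 37 °C, 5% CO2 after seeding at 1×10^5 cells/well. A cell death-inducing rate of 40% or more counted as active.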

| Compound | minimal effective concentration |
| --- | --- |
| COc1ccccc1-c1cc(COC(=O)Nc2ccc3c(c2)nc2n3CCCC2)n(C)n1 [Example 13-114] | 0.1 µM |
| CCn1nc(-c2ccccc2OC)cc1COC(=O)Nc1ccc2c(c1)nc1n2CCCC1 [Example 13-115] | 0.1 µM |
| COc1cc(F)ccc1-c1cc(COC(=O)Nc2ccc3c(c2)nc2n3CCCC2)n(C)n1 [Example 13-116] | 0.025 µM |
| CCn1nc(-c2ccc(F)cc2OC)cc1COC(=O)Nc1ccc2c(c1)nc1n2CCCC1 [Example 13-117] | 0.1 µM |
| COc1cc(Cl)ccc1-c1cc(COC(=O)Nc2ccc3c(c2)nc2n3CCCC2)n(C)n1 [Example 13-118] | 0.00625 µM |
| CCn1nc(-c2ccc(Cl)cc2OC)cc1COC(=O)Nc1ccc2c(c1)nc1n2CCCC1 [Example 13-119] | 0.025 µM |
| COc1cc(C)ccc1-c1cc(COC(=O)Nc2ccc3c(c2)nc2n3CCCC2)n(C)n1 [Example 13-120] | 0.025 µM |
| CCn1nc(-c2ccc(C)cc2OC)cc1COC(=O)Nc1ccc2c(c1)nc1n2CCCC1 [Example 13-121] | 0.025 µM |
| Cc1ccc(-c2cc(COC(=O)Nc3ccc4c(c3)nc3n4CCCC3)n(C)n2)c(C)c1 [Example 13-122] | 0.025 µM |
| CCn1nc(-c2ccc(C)cc2C)cc1COC(=O)Nc1ccc2c(c1)nc1n2CCCC1 [Example 13-123] | 0.025 µM |
| CCn1nc(-c2ccccc2OC)cc1COC(=O)Nc1ccc2c(cnn2C)c1 [Example 13-124] | 10 µM |
| COc1cc(F)ccc1-c1cc(COC(=O)Nc2ccc3c(cnn3C)c2)n(C)n1 [Example 13-125] | 1 µM |
| CCn1nc(-c2ccc(F)cc2OC)cc1COC(=O)Nc1ccc2c(cnn2C)c1 [Example 13-126] | 10 µM |
| COc1cc(Cl)ccc1-c1cc(COC(=O)Nc2ccc3c(cnn3C)c2)n(C)n1 [Example 13-127] | 0.1 µM |
| CCn1nc(-c2ccc(Cl)cc2OC)cc1COC(=O)Nc1ccc2c(cnn2C)c1 [Example 13-128] | 1 µM |
| CCn1ncc2cc(NC(=O)OCc3cc(-c4ccc(Cl)cc4OC)nn3C)ccc21 [Example 13-129] | 0.025 µM |
| CCn1nc(-c2ccc(C)cc2OC)cc1COC(=O)Nc1ccc2c(cnn2C)c1 [Example 13-130] | 1 µM |
| Cc1ccc(-c2cc(COC(=O)Nc3ccc4c(cnn4C)c3)n(C)n2)c(C)c1 [Example 13-131] | 1 µM |
| CCn1nc(-c2ccc(C)cc2C)cc1COC(=O)Nc1ccc2c(cnn2C)c1 [Example 13-132] | 1 µM |
| CCn1cc2cc(NC(=O)OCc3cc(-c4ccc(Cl)cc4OC)nn3C)ccc2n1 [Example 13-133] | 0.00625 µM |
| COc1cc(F)ccc1-c1cc(COC(=O)Nc2ccc3c(c2)ncn3C)nn1C [Example 13-135] | 0.1 µM |
| COc1cc(Cl)ccc1-c1cc(COC(=O)Nc2ccc3c(c2)ncn3C)nn1C [Example 13-137] | 10 µM |

| Compound | minimal effective concentration |
| --- | --- |
| Cc1ccc(-c2cc(COC(=O)Nc3ccc4c(c3)ncn4C)nn2C)c(C)c1 [Example 13-141] | 10 µM |
| COc1cc(Cl)ccc1-c1cc(COC(=O)Nc2ccc3c(c2)nc2n3CCOC2)nn1C [Example 13-144] | 10 µM |
| CCc1nc(-c2ccc(F)cc2C)sc1COC(=O)Nc1ccc2c(c1)ncn2C [Example 13-149] | 0.025 µM |
| CCc1nc(-c2ccc(F)cc2C)sc1COC(=O)Nc1ccc2c(c1)nc1n2CCOC1 [Example 13-150] | 0.025 µM |
| COc1ccc(CN(C)NC(=O)c2sc(-c3ccc(Cl)cc3OC)nc2C)cc1 [Example 16-1, 2-(4-Chloro-2-methoxyphenyl)-4-methylthiazole-5-carboxylic acid N′-(4-methoxybenzyl)-N′-methyl hydrazide] | 0.1 µM |
| COc1ccc(CN(C)NC(=O)c2sc(-c3ccc(Cl)cc3)nc2C)cc1 [Example 16-2] | 10 µM |
| COc1ccc(CN(C)NC(=O)c2sc(-c3ccccc3C)nc2C)cc1 [Example 16-3] | 1 µM |
| COc1ccc(CN(C)NC(=O)c2sc(-c3ccccc3OC)nc2C)cc1 [Example 16-4] | 1 µM |
| COc1ccc(CN(C)NC(=O)c2sc(-c3cccc(C)c3C)nc2C)cc1 [Example 16-5] | 10 µM |
| COc1ccc(CN(C)NC(=O)c2sc(-c3ccc(Cl)cc3C)nc2C)cc1 [Example 16-6] | 0.1 µM |
| COc1ccc(CN(C)NC(=O)c2sc(-c3ccc(F)cc3F)nc2C)cc1 [Example 16-7] | 1 µM |
| COc1ccc(CN(C)NC(=O)c2sc(-c3ccc(F)cc3OC)nc2C)cc1 [Example 16-8] | 0.1 µM |
| COc1ccc(CN(C)NC(=O)c2sc(-c3ccc(OC)cc3Cl)nc2C)cc1 [Example 16-9] | 10 µM |
| COc1ccc(CN(C)NC(=O)c2sc(-c3ccc(Cl)cc3Cl)nc2C)cc1 [Example 16-10] | 1 µM |
| COc1ccc(CN(C)NC(=O)c2sc(-c3ccc(C)cc3C)nc2C)cc1 [Example 16-11] | 0.1 µM |
| CCN(Cc1ccc(OC)cc1)NC(=O)c1sc(-c2ccccc2OC)nc1C [Example 16-12] | 1 µM |
| CCN(Cc1ccc(OC)cc1)NC(=O)c1sc(-c2ccc(Cl)cc2OC)nc1C [Example 16-13] | 0.1 µM |
| CCN(Cc1ccc(OC)cc1)NC(=O)c1sc(-c2cccc(C)c2C)nc1C [Example 16-14] | 10 µM |
| CCN(Cc1ccc(OC)cc1)NC(=O)c1sc(-c2ccc(Cl)cc2C)nc1C [Example 16-15] | 1 µM |
| COc1ccc(CN(C)NC(=O)c2sc(-c3ccc(Cl)cc3OC)nc2C)cc1OC [Example 16-16] | 1 µM |
| COc1ccc(CN(C)NC(=O)c2sc(-c3ccc(Cl)cc3C)nc2C)cc1OC [Example 16-17] | 1 µM |
| COc1cc(Cl)ccc1-c1nc(C)c(C(=O)NN(C)Cc2ccc3c(c2)CCO3)s1 [Example 16-18] | 1 µM |

| Compound | minimal effective concentration |
| --- | --- |
| CCOc1ccc(CN(C)NC(=O)c2sc(-c3ccc(Cl)cc3OC)nc2C)cc1 [Example 16-19] | 0.1 µM |
| COc1ccc(CN(C)NC(=O)c2sc(-c3ccc(Cl)cc3OC)nc2C)cc1F [Example 16-20] | 0.1 µM |
| COc1ccc(CN(C)NC(=O)c2sc(-c3ccc(F)cc3F)nc2C)cc1F [Example 16-21] | 1 µM |
| COc1cc(Cl)ccc1-c1nc(C)c(C(=O)NN(C)Cc2ccc(SC)cc2)s1 [Example 16-22] | 1 µM |
| COc1ccc(CN(C)NC(=O)c2sc(-c3ccc(Cl)cc3OC)nc2C)cc1C [Example 16-23] | 1 µM |
| COc1ccc(CN(C)NC(=O)c2sc(-c3ccc(Cl)cc3OC)nc2C)cc1O [Example 16-24] | 0.1 µM |
| COc1ccc(CN(C)NC(=O)c2sc(-c3ccc(Cl)cc3C)nc2C)cc1O [Example 16-25] | 0.1 µM |
| Cc1cc(Cl)ccc1-c1nc(C)c(C(=O)NNCc2ccc3c(ccn3C)c2)s1 [Example 17-1] | 0.1 µM |
| Cc1cc(Cl)ccc1-c1nc(C)c(C(=O)NN(C)Cc2ccc3c(ccn3C)c2)s1 [Example 17-2] | 0.025 µM |
| COc1cc(Cl)ccc1-c1nc(C)c(C(=O)NNCc2cc(C)c(O)c(C)c2)s1 [Example 17-3, 2-(4-Chloro-2-methoxyphenyl)-4-methylthiazole-5-carboxylic acid N′-(4-hydroxy-3,5-dimethylbenzyl)hydrazide] | 1 µM |
| COc1cc(Cl)ccc1-c1nc(C)c(C(=O)NN(C)Cc2cc(C)c(O)c(C)c2)s1 [Example 17-4, 2-(4-Chloro-2-methoxyphenyl)-4-methylthiazole-5-carboxylic acid N′-(4-hydroxy-3,5-dimethylbenzyl)-N′-methyl hydrazide] | 10 µM |
| COc1ccc(CN(C)NC(=O)c2cc(-c3ccc(Cl)cc3OC)n[nH]2)cc1 [Example 18-1, 5-(4-Chloro-2-methoxyphenyl)-2H-pyrazole-3-carboxylic acid N′-(4-methoxybenzyl)-N′-methyl hydrazide] | 1 µM |
| CCN(Cc1ccc(OC)cc1)NC(=O)c1cc(-c2ccc(Cl)cc2OC)n[nH]1 [Example 18-2, 5-(4-Chloro-2-methoxyphenyl)-2H-pyrazole-3-carboxylic acid N′-ethyl-N′-(4-methoxybenzyl)hydrazide] | 1 µM |
| COc1ccc(CN(C)NC(=O)c2cc(-c3ccc(Cl)cc3OC)ns2)cc1 [Example 19-1, 3-(4-Chloro-2-methoxyphenyl)isothiazole-5-carboxylic acid N′-(4-methoxybenzyl)-N′-methyl hydrazide] | 10 µM |
| CCN(Cc1ccc(OC)cc1)NC(=O)c1cc(-c2ccc(Cl)cc2OC)ns1 [Example 19-2, 3-(4-Chloro-2-methoxyphenyl)isothiazole-5-carboxylic acid N′-(4-methoxybenzyl)-N′-ethyl hydrazide] | 10 µM |
| COc1ccc(CN(C)NC(=O)c2cc(-c3ccccc3OC)oc2C)cc1 [Example 20-1, 5-(2-Methoxyphenyl)-2-methylfuran-3-carboxylic acid N′-(4-methoxybenzyl)-N′-methyl hydrazide] | 10 µM |
| O=C(N/N=C/c1ccc(O)cc1Cl)c1cc(-c2ccc(Cl)cc2Cl)n[nH]1 [Example 21-8] | 10 µM |
| Cc1cc(/C=N/NC(=O)c2cc(-c3ccc(Cl)cc3Cl)n[nH]2)cc(C)c1O [Example 21-11] | 1 µM |
| O=C(N/N=C/c1ccc(O)c(Cl)c1)c1cc(-c2ccc(Cl)cc2Cl)n[nH]1 [Example 21-13] | 10 µM |
| O=C(N/N=C/c1ccc([N+](=O)[O-])c(O)c1)c1cc(-c2ccc(Cl)cc2Cl)n[nH]1 [Example 21-15] | 10 µM |
